This is an account of results in US6589977B1, “Pyrrole derivatives and cell death inhibitors” (Sagami Chemical Research Center, priority 1999, dated 2003).

The subject of one assay is Hela 3S cells. In words: Anti-cell death effect on Hela 3S cells cultured in Krebs Ringer Buffer. The class given is cell-based, human. The note with it: compound 10 μM. As for the experimental part:
Hela 3S cells (culture medium: DMEM containing 10% fetal bovine serum), a cell line derived from human cervical cancer, were seeded into multi 48 well plates and cultured in a CO2 incubator according to conventional procedures. Confirming the subconfluency of a cell culture, the medium was replaced with Krebs Ringer Buffer (120 mM NaCl, […], 1 mM KH2PO4, […], 20 mM HEPES, pH 7.4, 2.57 g/L glucose, 0.05 g/L Phenol Red) and washed three times with the same buffer and cultivation continued in the same buffer. […] When the test compound 1 (10 μM) or the test compound 15 (10 μM) was added in the present culture system and cultivation continued similarly, the proportion of normal cells increased 59% or 77% respectively, and the proportion of necrosis-like cells decreased (1% or 0%, respectively), indicating the anti-cell death effects.

The subject of assay [1] is cerebellar granule cells. In words: Inhibition of sodium azide-induced death of cerebellar granule cells. It is filed as cell-based, rats. The note with it: compound 10 μM; sodium azide (10 mM); after 2 hours. As for the experimental part:
According to a known method (A Dissection and Tissue Culture Manual of the Nervous System, p. 211, 1989, Alan R, Liss, Inc.), cerebellar granule cells were isolated from the cerebellum of 7 days old rats and cultured. Namely, after conducting isolation procedures described in the above literature, the resulting cells were resuspended in DMEM containing 10% fetal bovine serum, 25 mM KCl and 2 mM glutamine, and seeded in poly-lysine coated plates. […] The following experiments were conducted with the cells of 7 to 14 days old from the start day of the cultivation, the cells having completed neurite extension sufficiently.

Assay [2] deals with cerebellar granule cells. Kind of assay: Inhibition of antimycin A-induced death of cerebellar granule cells. It is filed as cell-based, rats. The note with it: compound 10 μM; antimycin A (5 μM); after 2 hours. As for the experimental part: (§1) According to a known method (A Dissection and Tissue Culture Manual of the Nervous System, p. 211, 1989, Alan R, Liss, Inc.), cerebellar granule cells were isolated from the cerebellum of 7 days old rats and cultured. Namely, after conducting isolation procedures described in the above literature, the resulting cells were resuspended in DMEM containing 10% fetal bovine serum, 25 mM KCl and 2 mM glutamine, and seeded in poly-lysine coated plates. After the cells were cultured in a CO2 incubator for 48 hours according to a conventional method, cytosine-1-β-D(+)-arabinofuranoside (Ara-C) (10 μM) was added thereto, and the cell was continued to culture. The following experiments were conducted with the cells of 7 to 14 days old from the start day of the cultivation, the cells having completed neurite extension sufficiently.
When the test compound 15 (10 μM) coexisted prior to the antimycin A addition, more than 95% of cells were alive on an observation made similarly after 2 hours.

For assay [3], the system named is cerebellar granule cells. Kind of assay: Inhibition of bilirubin-induced death of cerebellar granule cells. The class given is cell-based, rats. The following applies: compound 10 μM added prior to bilirubin (10 μg/ml); after 23 hours. As for the experimental part:
as §1
Neonatal jaundice is known to induce severe brain damages by way of abnormally high concentration of bilirubin in the body. […] When the test compound 15 (10 μM) was added prior to the bilirubin addition, more than 95% of cells were alive on an observation made similarly after 23 hours.

The subject of assay [4] is cerebellar granule cells. Kind of assay: Inhibition of glutamate-induced death of cerebellar granule cells. The class given is cell-based, rats. The following applies: compound 10 μM; glutamate (1 mM); after 6 hours. As for the experimental part:
as §1
Medium of cerebellar granule cells cultured for 14 days as described in Test Example 3 was replaced with DMEM containing 10% of dialyzed fetal bovine serum and subjected to a further overnight culture. […] When the test compound 15 (10 μM) coexisted, more than 95% of cells were alive on an observation even after 6 hours.

Assay [5] has as its system Porcine ovarian granulosa cells (POGC). Kind of assay: Inhibition of SNP-induced apoptosis of porcine ovarian granulosa cells. It is filed as cell-based. The note with it: SNP 0.5 mM; cells observed after 18 hours. From the text:
Porcine ovaries were washed with PBS buffer, and Porcine ovarian granulosa cells (POGC) were collected by aspiration from follicles with a syringe. Cell fraction was recovered as a precipitate by centrifugation of the suspension. The operation of suspending the cell fraction into PBS buffer and subjecting the resulting suspension to centrifugation was repeated three times to wash the cells. The POGC obtained as a precipitate were suspended again into a culture medium (DMEM containing 10% fetal bovine serum) and cell clumps were disrupted by pipetting. The cell suspension was passed through a mesh to remove contaminating tissue fragments, and then pipetted in 24-well plates for cell culture. The cell suspension was cultured for 2 days in a CO2 incubator according to a conventional procedure (37° C., 5% CO2). Then, the medium was refreshed to remove floating cells and the cultivation was continued further 2 to 3 days until the cells reached subconfluency (0.7 to 2×10^5 cell/well). After the attaching cells were washed with serum-free medium, they were cultured in a serum-free DMEM (containing 5 μg/mL of transferrin, and 40 ng/mL of hydrocortisone, 4 mg/mL of bovine serum albumin (BSA), 100 nM androstendione) and it was possible to continue to culture cells with relatively immature differentiation. […] The cell death was also confirmed by MTT assay. Then, various concentrations of the test compounds were added to the present culture system and the cells were observed after 18 hours.

The subject of assay [6] is cerebellar granule cells. Kind of assay: Inhibition of low potassium medium-induced death of cerebellar granule cells. The following applies: compound 10 μM; low potassium medium (5 mM KCl); after 18 hours. It is filed as cell-based, rats. As for the experimental part: as §1
It is known that neuronal cells undergo cell death when they are cultured in a medium of low potassium (Proc. Natl. Acad. Sci. U.S.A., volume 90, p 10989, 1993). […] When the test compound 1 (10 μM), the test compound 10 (10 μM), or the test compound 15 (10 μM)coexisted, 50%, 80%, and 85% of cells were respectively alive on an observation made similarly after 18 hours.

In a further assay the test system is erythrocytes. Kind of assay: Inhibition of hydrogen peroxide-induced hemolysis of erythrocytes. The note with it: compound 10 μM added prior to hydrogen peroxide (300 μM); after 24 hours. It is filed as cell-based, Human. As for the experimental part:
Human blood was collected and precipitated by a centrifugation (1000 rpm, 5 min) and the precipitate containing erythrocytes was washed three times with PBS and resuspended (about 5×10^8 cells/ml) with DMEM containing 10% fetal bovine serum. Cell suspensions were dispensed into a 48-well plate to become subconfluent (about 5×10^5 cells/0.5 ml/well). When hydrogen peroxide (300 μM) was added and cultivation continued for 24 hours, more than 95% of erythrocytes underwent hemolysis and become dark and ghost-like on an observation under a light microscopy.

The test system of assay [7] is cerebellar granule cells. Kind of assay: Inhibition of MPPI-induced death of cerebellar granule cells (Parkinson model). The following applies: compound 1 μM added prior to MPPI (200 μM); 15 DIV cells; after 18 hours. The class given is cell-based, rats. As for the experimental part: as §1, with “The following experiments were conducted with the cells of 7 to 14 days old from the start day of the cultivation, the cells having completed neurite extension sufficiently.” left out
In Parkinson's disease the dopaminergic neurons in the substantia nigra and corpus striatum in the mid-brain are selectively destroyed. Because following administration of MPTP(1-methyl-4-phenyl-1,2,3,6-tetrahydropyridine) the similar selective destruction of the dopaminergic neurons and Parkinson's disease-like symptoms are observed, the administration system of MPTP is generally employed as an in vivo model of the onset of Parkinson's disease. […]

Assay [8] concerns cerebellar granule cells. In words: Inhibition of FCCP-induced death of cerebellar granule cells. It is filed as cell-based, rats. The following applies: compound 10 μM; FCCP (5 μM); after 2 hours. As for the experimental part:
as §1
When the test compound 15 (10 μM) coexisted prior to the FCCP addition, 80% of cells were alive on an observation similarly made after 2 hours.

As for `Cc1ccc2[nH]cc(-c3cn(C)cc3-c3c[nH]c4ccc(C)cc34)c2c1` [Compound 15], the “proportion of necrosis-like cells” value with Hela 3S cells (after 5 hours (11% without compound)) was 0%. In addition, the “proportion of normal cells” value in the assay with Hela 3S cells (after 5 hours (42% normal without compound)) came to 77%. The cells alive entry in the assay on cerebellar granule cells [1] is on record as “more than 95%”; in the assay on cerebellar granule cells [2], “more than 95%”; in the assay with cerebellar granule cells [3], “more than 95%”; with cerebellar granule cells [4], “more than 95%”; in the assay with cerebellar granule cells [6] it was 85%; in the assay with cerebellar granule cells [7], “more than 95%”. The molecule further gave a cells alive with cerebellar granule cells [8] of 80%. Moreover, in assay [5], the “MEC (Minimum effective concentration for more than 95% of inhibition of cell death)” value was 0.05 µM. Also, in the assay on erythrocytes, the inhibition of hemolysis result is “almost complete inhibition of hemolysis”.
